Experimental data published in article PMC10573198, “Synthesis, Physicochemical Characterization using a Facile Validated HPLC Quantitation Analysis Method of 4-Chloro-phenylcarbamoyl-methyl Ciprofloxacin and Its Biological Investigations” (International Journal of Molecular Sciences, 2023).

Key:
[1] = target: T1, Topoisomerase IV (Staphylococcus aureus, UniProt P0C1S7+Q2FYS4); assay: Topo IV kDNA decatenation assay, agarose gel; format: biochemical
T1 construct: gene parC; with Topoisomerase IV subunit B (ParE); kDNA substrate
T1 sequence (Q2FYS4 whole entry): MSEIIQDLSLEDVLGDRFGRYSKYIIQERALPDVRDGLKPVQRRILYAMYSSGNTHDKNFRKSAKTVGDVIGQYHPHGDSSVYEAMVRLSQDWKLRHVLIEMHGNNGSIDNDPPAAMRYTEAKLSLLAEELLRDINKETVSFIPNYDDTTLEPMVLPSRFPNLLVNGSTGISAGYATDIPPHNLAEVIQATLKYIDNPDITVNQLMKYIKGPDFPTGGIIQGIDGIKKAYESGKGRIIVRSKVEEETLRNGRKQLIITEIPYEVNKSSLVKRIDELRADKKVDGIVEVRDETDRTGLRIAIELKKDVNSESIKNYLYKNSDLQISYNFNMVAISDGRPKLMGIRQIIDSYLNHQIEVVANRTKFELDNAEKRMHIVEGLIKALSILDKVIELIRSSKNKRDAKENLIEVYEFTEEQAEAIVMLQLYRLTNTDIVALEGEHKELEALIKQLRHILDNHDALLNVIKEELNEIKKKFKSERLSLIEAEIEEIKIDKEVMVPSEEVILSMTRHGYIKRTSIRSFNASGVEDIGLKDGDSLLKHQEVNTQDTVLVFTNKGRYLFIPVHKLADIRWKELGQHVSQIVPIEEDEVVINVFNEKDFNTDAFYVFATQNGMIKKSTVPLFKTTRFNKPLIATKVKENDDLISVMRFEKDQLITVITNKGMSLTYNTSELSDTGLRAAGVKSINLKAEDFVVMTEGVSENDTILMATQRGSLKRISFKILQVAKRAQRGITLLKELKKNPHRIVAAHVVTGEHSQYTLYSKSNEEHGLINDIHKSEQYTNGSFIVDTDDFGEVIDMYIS
T1 sequence (P0C1S7 whole entry): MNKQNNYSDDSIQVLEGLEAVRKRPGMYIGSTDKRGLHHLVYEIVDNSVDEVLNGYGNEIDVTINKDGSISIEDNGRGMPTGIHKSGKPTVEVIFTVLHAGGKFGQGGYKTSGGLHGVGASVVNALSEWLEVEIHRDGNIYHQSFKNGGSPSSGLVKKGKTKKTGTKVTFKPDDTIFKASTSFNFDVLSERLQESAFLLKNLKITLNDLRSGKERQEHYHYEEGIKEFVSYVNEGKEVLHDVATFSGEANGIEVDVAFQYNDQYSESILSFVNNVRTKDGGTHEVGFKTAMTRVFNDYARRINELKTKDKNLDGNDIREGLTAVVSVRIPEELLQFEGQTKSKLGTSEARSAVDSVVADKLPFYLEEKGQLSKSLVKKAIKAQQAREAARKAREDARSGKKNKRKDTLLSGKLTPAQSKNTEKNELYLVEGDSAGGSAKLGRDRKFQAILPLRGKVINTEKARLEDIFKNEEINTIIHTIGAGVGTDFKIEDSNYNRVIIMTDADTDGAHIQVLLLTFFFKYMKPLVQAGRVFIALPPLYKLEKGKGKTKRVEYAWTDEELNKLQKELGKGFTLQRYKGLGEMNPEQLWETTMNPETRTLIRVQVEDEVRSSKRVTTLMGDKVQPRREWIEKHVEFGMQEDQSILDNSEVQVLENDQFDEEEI

[2] = target: T2, DNA gyrase (Staphylococcus aureus, UniProt P0A0K8+P20831); assay: S. aureus gyrase supercoiling assay, relaxed pBR322, agarose gel; format: biochemical
T2 construct: gene gyrA; with DNA gyrase subunit B (GyrB); plasmid DNA
T2 sequence (P0A0K8 2-644): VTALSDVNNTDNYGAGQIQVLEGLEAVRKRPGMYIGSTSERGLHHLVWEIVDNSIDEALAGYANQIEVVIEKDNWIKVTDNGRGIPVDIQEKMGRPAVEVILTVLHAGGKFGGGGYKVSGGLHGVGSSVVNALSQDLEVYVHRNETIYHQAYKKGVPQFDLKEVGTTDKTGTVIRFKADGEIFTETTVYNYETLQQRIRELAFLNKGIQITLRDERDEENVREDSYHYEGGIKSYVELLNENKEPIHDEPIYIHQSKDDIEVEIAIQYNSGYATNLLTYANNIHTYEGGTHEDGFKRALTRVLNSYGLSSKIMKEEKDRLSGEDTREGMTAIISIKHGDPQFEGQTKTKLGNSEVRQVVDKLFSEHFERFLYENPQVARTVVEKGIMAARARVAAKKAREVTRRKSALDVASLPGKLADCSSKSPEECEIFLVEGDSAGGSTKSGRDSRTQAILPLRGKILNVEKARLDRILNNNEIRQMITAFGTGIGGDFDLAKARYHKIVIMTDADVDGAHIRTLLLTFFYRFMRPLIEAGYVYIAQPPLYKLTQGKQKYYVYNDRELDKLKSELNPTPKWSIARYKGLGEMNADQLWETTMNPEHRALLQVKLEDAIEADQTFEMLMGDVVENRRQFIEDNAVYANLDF
T2 sequence (P20831 whole entry): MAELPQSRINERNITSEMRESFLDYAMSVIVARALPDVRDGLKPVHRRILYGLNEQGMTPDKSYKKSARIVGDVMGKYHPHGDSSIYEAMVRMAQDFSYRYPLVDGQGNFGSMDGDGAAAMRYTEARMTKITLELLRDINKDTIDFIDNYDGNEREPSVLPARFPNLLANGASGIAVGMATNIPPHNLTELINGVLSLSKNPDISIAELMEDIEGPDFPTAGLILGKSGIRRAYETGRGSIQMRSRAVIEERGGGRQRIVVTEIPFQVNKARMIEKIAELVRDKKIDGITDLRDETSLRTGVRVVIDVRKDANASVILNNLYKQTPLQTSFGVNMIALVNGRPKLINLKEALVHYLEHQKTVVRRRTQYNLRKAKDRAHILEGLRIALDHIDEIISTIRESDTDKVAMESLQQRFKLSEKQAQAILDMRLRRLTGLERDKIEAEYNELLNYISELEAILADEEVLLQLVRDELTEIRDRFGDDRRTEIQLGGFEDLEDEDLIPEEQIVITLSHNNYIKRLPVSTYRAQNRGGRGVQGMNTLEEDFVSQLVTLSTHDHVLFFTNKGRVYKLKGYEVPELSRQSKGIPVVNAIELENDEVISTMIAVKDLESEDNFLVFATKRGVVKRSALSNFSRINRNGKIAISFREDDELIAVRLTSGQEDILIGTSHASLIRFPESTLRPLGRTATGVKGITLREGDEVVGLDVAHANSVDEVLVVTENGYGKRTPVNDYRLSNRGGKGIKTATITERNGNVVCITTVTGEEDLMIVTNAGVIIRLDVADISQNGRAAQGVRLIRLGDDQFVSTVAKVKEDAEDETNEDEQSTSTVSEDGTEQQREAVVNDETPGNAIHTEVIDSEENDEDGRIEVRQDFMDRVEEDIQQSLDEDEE

Compound: O=C(CN1CCN(c2cc3c(cc2F)c(=O)c(C(=O)O)cn3C2CC2)CC1)Nc1ccc(Cl)cc1 [Cpx-Drv]
- IC50 [1]: 3.83 µM
- IC50 [2]: 13.5 µM
